From US6124322A, “Intravenous form of thalidomide for treating immunological diseases” (Gruenenthal GmbH, priority 1997, dated 2000)
In brackets after ≈: the same amount, converted by molar mass.

How the values were obtained:
[1] = test system: cutaneous lupus erythematosus, pyoderma gangrenosum, orogenital ulcers with morbus Behcet, ulcerations in HIV-infected patients; settings: cited from earlier work
aphthous stomatitis = settings: treatment of aphthous stomatitis; cited from earlier work
[2] = hydrolysis in aqueous solution; format: physicochemical; settings: aqueous solutions, pH not restricted
Source text: The enantiomers of thalidomide have a solubility in water which is higher by a factor of 6 than that of the racemate.

[3] = Arch. Pharm. 321, 371 (1988); cited from earlier work

## O=C1CCC(N2C(=O)c3ccccc3C2=O)C(=O)N1 (racemic) [thalidomide]
[1]
  efficacy without general immunosuppression: good efficacy without resulting in a general immunosuppression
Aphthous stomatitis
  efficacy in aphthous stomatitis versus classical immunosuppressants: superior to classical immunosuppressants
[2]
  hydrolysis in aqueous solution: tendency of thalidomide to undergo spontaneous hydrolysis
[3]
  solubility in water: 12 µg/mL (≈ 46.5 µM)
